{"source": "patent US10858407B2", "about": "(priority 2014, dated 2020)", "test_system": "potassium ion channel current of the DRG neurons", "format": "cell-based, SD rats", "details": "5 mM"}
{"molecule": "Nc1ccncc1", "note": "[4AP, 4-aminopyridine]", "values": [{"measurement": "Current inhibition rate", "value": 0.338}, {"measurement": "Current recorded after loading", "value": 0.9766, "unit": "nA"}]}
